{"source": "paper PMC8400394", "about": "“Adsorption of Recombinant Human β-Defensin 2 and Two Mutants on Mesoporous Silica Nanoparticles and Its Effect against Clavibacter michiganensis subsp. michiganensis” (Nanomaterials, 2021)", "format_in_all_cases": "cell-based, Clavibacter michiganensis subsp. michiganensis", "key": {"Cmm [1]": {"test_system": "Cmm", "assay": "Determination of IC50 of the recombinant AMPs", "details": "Cmm in MHB, minimum concentration of AMP that inhibits 50% of the growth", "method": "(§1) Cmm was cultivated in Mueller-Hinton broth (MHB) at […] for 16 h at 180 rpm. Employing 0.5 mL of the previous culture, 50 mL of fresh MHB were inoculated. The culture was maintained under the conditions mentioned above until the OD600 reached 0.2–0.3. 9.5 mL of MHB agar prewarmed to 37 °C were added to 0.5 mL of the culture. It was homogenized and then poured onto a Petri dish containing MHB agar to form a uniform layer of 2 mm. Once the surface was dry, different volumes (5, 10 and 15 μL) of the defensins under study (50 μM) were added to the surface. The plates were incubated for 24 h at 28 °C, then the formed inhibition halos were measured. CH3COOH (acid acetic)10 mM pH 2.4 and Tris 50 mM pH 8.4 were used both as negative controls. The IC50 was determined based on that reported by Tay and Liu. This measurement was defined as the minimum concentration of AMP that is required to inhibit 50% of the growth of Cmm."}, "Cmm [2]": {"test_system": "Cmm", "assay": "Effect of pepsin on AMPs and MSN/AMPs complexes (growth of Cmm after protease treatment)", "details": "AMPs (1 mg/mL) treated with pepsin (1 mg/mL), 5:1 peptide:enzyme; then Cmm culture 28 °C, 24 h; CFU count; duplicate", "method": "After removing the supernatant and drying the MSN/AMP complexes, 200 µL of the pepsin (1 mg/mL) were added and incubated at 37 °C for 16 h under constant shaking. The microtubes were then centrifuged at 5000× g for 10 min at 4 °C. The resulting pellet was washed twice with deionized water and centrifuged at 5000× g for 10 min at 4 °C between each wash. MSN/AMPs complexes were resuspended in 3 mL of diluted Cmm culture and incubated at 28 °C for 24 h at 180 rpm. After the incubation period, serial dilutions were performed up to 1 × 10^6 of which 100 µL were taken and Petri dishes were poured with 30 mL MHB medium. The plates were incubated at 28 °C for 72 h and the colonies were counted, bacterial growth was expressed as CFU/mL. Controls were prepared with MSN (5 mg/mL) in PBS and AMPs (1 mg/mL) treated with protease (1 mg/mL) in a 5:1 ratio (peptide:enzyme). The experiments for this assay were performed by duplicate."}, "Cmm [3]": {"test_system": "Cmm", "assay": "Antimicrobial activity of AMPs by the plaque diffusion method", "details": "plaque diffusion on MHB agar with Cmm; 5, 10 and 15 μL of 50 μM; CH3COOH 10 mM pH 2.4 and Tris 50 mM pH 8.4; 24 h, 28 °C; triplicate", "method": "as §1"}, "Cmm [4]": {"test_system": "Cmm", "assay": "Antimicrobial activity of MSN/AMPs complexes in solid medium", "details": "plaque diffusion on MHB with Cmm; 5, 10, 15 µL; 24 h, 28 °C; MSN 5 mg/mL, AMPs 0.5 mg/mL; triplicate", "method": "The antimicrobial activity of the MSN/AMPs complexes was evaluated both in solid and liquid media. For the solid medium, the adsorption process was carried out as described in the previous section. The pellet was resuspended in PBS (1 mL). Afterwards, different volumes of the MSN/AMPs mixture were deposited onto Petri dishes with MHB medium and Cmm (see antimicrobial activity test section and IC50 determination). The plates were incubated for 24 h at 28 °C, the diameter of the inhibition halos was measured. MSN (5 mg/mL) and AMPs (0.5 mg/mL) were employed as controls. These experiments were performed by triplicates."}}}
{"substance": "human β-defensin-2 [hβD2]", "values": [{"measurement": "IC50", "setting": "Cmm [1]; AMP in CH3COOH 10 mM pH 2.4", "result": "3.64 ± 0.33", "unit": "µg/mL"}, {"measurement": "IC50", "setting": "Cmm [1]; AMP in Tris 50 mM pH 8.4", "result": "3.61 ± 0.47", "unit": "µg/mL"}, {"measurement": "Cmm growth inhibition after pepsin treatment, AMPs without the mesoporous matrix", "setting": "Cmm [2]", "result": 99.98, "unit": "%"}, {"measurement": "antimicrobial activity (inhibition halos)", "setting": "Cmm [3]", "result": "exhibited inhibition halos"}, {"measurement": "antimicrobial activity in solid medium (inhibition halos)", "setting": "Cmm [4]", "result": "greater inhibition than MNS/hβD2"}]}
